Patent US4130559A, “Method for the preparation of 6-aminopenicillinic acid derivatives” (priority 1977, dated 1978)
In brackets after ≈: the same amount, converted by molar mass. Read-outs that look alike come from different tables or passages of the source.

Assays:
in vivo = details: mouse, iv
[1] = Acid resistance (half-life period); format: physicochemical; details: acid ph 1.3, Temperature 37° C, pH 1.3, read-out: τ1/2 half-life period (acid resistance)
Description: (§1) All compounds of this group were prepared in the form of sodium salts. Bactericidal activity, degree of hydrolysis with staphylococc penicillinase and acid resistance of the penicillins were determined.

Staph. aureus 209p = assay: Minimal bacteriostatic concentration; format: cell-based; details: Staphylococcus aureus, sodium salts
Description: as §1

B.Subtitis ATCC6633 = assay: Minimal bacteriostatic concentration; format: cell-based; details: sodium salts
Description: as §1

Vibrion Metschnicoff = assay: Minimal bacteriostatic concentration; format: cell-based; details: Vibrion Metschnicoff; sodium salts; read-out: Minimal Bacteriostatic Concentration
Description: as §1

Staph. albus = assay: Minimal bacteriostatic concentration; format: cell-based; details: sodium salts
Description: as §1

E.coli O-55 = assay: Minimal bacteriostatic concentration; format: cell-based; details: Escherichia coli, O55, read-out: Minimal Bacteriostatic Concentration
Description: as §1

Myco smegmatis = assay: Minimal bacteriostatic concentration; format: cell-based; details: sodium salts
Description: as §1

Sh.dysenteriae Flexneri = assay: Minimal bacteriostatic concentration; format: cell-based; details: Shigella dysenteriae, read-out: Minimal Bacteriostatic Concentration
Description: as §1

Strept. pyrogenes = assay: Minimal bacteriostatic concentration; format: cell-based; details: sodium salts
Description: as §1

Prot.vulgaris = assay: Minimal bacteriostatic concentration; format: cell-based; details: Proteus vulgaris, sodium salts
Description: as §1

[2] = molecular target: staphylococc penicillinase (Staphylococcus aureus, UniProt P00807); assay: Hydrolysis/inactivation by staphylococc penicillinase; format: biochemical; details: Table 5
staphylococc penicillinase, sequence (P00807 25-281): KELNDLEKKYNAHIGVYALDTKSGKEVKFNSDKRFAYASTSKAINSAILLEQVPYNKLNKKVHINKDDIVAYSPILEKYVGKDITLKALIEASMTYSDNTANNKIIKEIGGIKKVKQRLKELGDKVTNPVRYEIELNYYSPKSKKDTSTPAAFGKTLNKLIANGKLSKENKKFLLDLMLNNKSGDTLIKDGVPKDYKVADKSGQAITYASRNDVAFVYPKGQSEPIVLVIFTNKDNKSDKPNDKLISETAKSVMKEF
Description: as §1
The substitution of propoxy radical for iso-radical in this position is not accompanied by areduction of penicillin stability against penicillinase which is not observed in the orto- and para-positions. During the subsequent hours of inactivation the rate of hydrolysis of penicillins slightly increases. However, even when observed in dynamics, their stability against penicillianase still persists during 4-hour-inactivation.

E.typhi = assay: Minimal bacteriostatic concentration; format: cell-based; details: read-out: Minimal Bacteriostatic Concentration
Description: as §1

Ps.aeruginosa = assay: Minimal bacteriostatic concentration; format: cell-based; details: Pseudomonas aeruginosa, sodium salts
Description: as §1

Row | SMILES | MTD (in vivo) | half-life ([1]; Table 2, cyclopropyl series) | half-life ([1]; Table 3, cyclobutyl series) | further results
1 | CC1(C)SC2C(NC(=O)C3(c4ccccc4)CC3)C(=O)N2C1C(=O)O (stereo not shown) [Compound I (Table 2)] | 1500 mg/kg | 9.9 min |  | 
2 | CC1(C)S[C@@H]2[C@H](NC(=O)C3(c4ccccc4)CCC3)C(=O)N2[C@H]1C(=O)O [Compound I (Table 3)] | 1000 mg/kg |  | 86.6 min | 
3 | COc1ccccc1C1(C(=O)NC2C(=O)N3C2SC(C)(C)C3C(=O)O)CC1 (stereo not shown) [Compound II (Table 2)] | 2000 mg/kg | 5 min |  | 
4 | COc1ccccc1C1(C(=O)N[C@@H]2C(=O)N3[C@@H]2SC(C)(C)[C@@H]3C(=O)O)CCC1 [Compound II (Table 3)] | 500 mg/kg |  | 7.7 min | 
5 | CCOc1ccccc1C1(C(=O)NC2C(=O)N3C2SC(C)(C)C3C(=O)O)CC1 (stereo not shown) [Compound III (Table 2)] | 500 mg/kg | 6 min |  | 
6 | CCOc1ccccc1C1(C(=O)N[C@@H]2C(=O)N3[C@@H]2SC(C)(C)[C@@H]3C(=O)O)CCC1 [Compound III (Table 3)] | 250 mg/kg |  | 19.1 min | 
7 | CCCOc1ccccc1C1(C(=O)NC2C(=O)N3C2SC(C)(C)C3C(=O)O)CC1 (stereo not shown) [Compound IV (Table 2)] | 500 mg/kg | 5.8 min |  | 
8 | CCCOc1ccccc1C1(C(=O)N[C@@H]2C(=O)N3[C@@H]2SC(C)(C)[C@@H]3C(=O)O)CCC1 [Compound IV (Table 3)] | 500 mg/kg |  | 23 min | 
9 | CCCOc1cccc(C2(C(=O)N[C@@H]3C(=O)N4[C@@H]3SC(C)(C)[C@@H]4C(=O)O)CC2)c1 [Compound IX (Table 2)] | 1500 mg/kg | 14.5 min |  | 
10 | CCCOc1cccc(C2(C(=O)N[C@@H]3C(=O)N4[C@@H]3SC(C)(C)[C@@H]4C(=O)O)CCC2)c1 [Compound IX (Table 3)] | 250 mg/kg |  | 20.1 min | 
11 | CC(C)Oc1ccccc1C1(C(=O)NC2C(=O)N3C2SC(C)(C)C3C(=O)O)CC1 (stereo not shown) [Compound V (Table 2)] | 500 mg/kg | 6 min |  | 
12 | CC(C)Oc1ccccc1C1(C(=O)N[C@@H]2C(=O)N3[C@@H]2SC(C)(C)[C@@H]3C(=O)O)CCC1 [Compound V (Table 3)] | 250 mg/kg |  | 18.6 min | 
13 | CCCCOc1ccccc1C1(C(=O)NC2C(=O)N3C2SC(C)(C)C3C(=O)O)CC1 (stereo not shown) [Compound VI (Table 2)] | 500 mg/kg | 5.2 min |  | 
14 | CCCCOc1ccccc1C1(C(=O)N[C@@H]2C(=O)N3[C@@H]2SC(C)(C)[C@@H]3C(=O)O)CCC1 [Compound VI (Table 3)] | 1000 mg/kg |  | 24.9 min | 
15 | COc1cccc(C2(C(=O)NC3C(=O)N4C3SC(C)(C)C4C(=O)O)CC2)c1 (stereo not shown) [Compound VII (Table 2)] | 1500 mg/kg | 7.2 min |  | 
16 | COc1cccc(C2(C(=O)N[C@@H]3C(=O)N4[C@@H]3SC(C)(C)[C@@H]4C(=O)O)CCC2)c1 [Compound VII (Table 3)] | 1500 mg/kg |  | 56.9 min | 
17 | CCOc1cccc(C2(C(=O)NC3C(=O)N4C3SC(C)(C)C4C(=O)O)CC2)c1 (stereo not shown) [Compound VIII (Table 2)] | 1500 mg/kg | 7.3 min |  | 
18 | CCOc1cccc(C2(C(=O)N[C@@H]3C(=O)N4[C@@H]3SC(C)(C)[C@@H]4C(=O)O)CCC2)c1 [Compound VIII (Table 3)] | 1500 mg/kg |  | 23.8 min | 

Row | SMILES | MTD (in vivo) | half-life ([1]; Table 2, cyclopropyl series) | half-life ([1]; Table 3, cyclobutyl series) | further results
19 | CC(C)Oc1cccc(C2(C(=O)N[C@@H]3C(=O)N4[C@@H]3SC(C)(C)[C@@H]4C(=O)O)CC2)c1 [Compound X (Table 2)] | 500 mg/kg | 10.5 min |  | 
20 | CC(C)Oc1cccc(C2(C(=O)N[C@@H]3C(=O)N4[C@@H]3SC(C)(C)[C@@H]4C(=O)O)CCC2)c1 [Compound X (Table 3)] | 500 mg/kg |  | 17.2 min | 
21 | CCCCOc1cccc(C2(C(=O)NC3C(=O)N4C3SC(C)(C)C4C(=O)O)CCCC2)c1 (stereo not shown) [Compound XI (Table 1)] | 2000 mg/kg |  |  | half-life ([1]; Table 1, cyclopentyl series): 278 min; MIC (Staph. aureus 209p): 0.39 µg/mL; MIC (B.Subtitis ATCC6633): 1.56 µg/mL; MIC (Vibrion Metschnicoff): 15.6 µg/mL; MIC (Staph. albus): 0.19 µg/mL; MIC (E.coli O-55): 125 µg/mL (≈ 271 µM); MIC (Myco smegmatis): > 500 µg/mL; MIC (Sh.dysenteriae Flexneri): 125 µg/mL (≈ 271 µM); MIC (Strept. pyrogenes): 0.39 µg/mL; MIC (Prot.vulgaris): 125 µg/mL; Quantity of inactivated units of compounds under the action of 1 unit of staphylococc penicillinase [2]: 11.2 units
22 | CCCCOc1cccc(C2(C(=O)N[C@@H]3C(=O)N4[C@@H]3SC(C)(C)[C@@H]4C(=O)O)CC2)c1 [Compound XI (Table 2)] | 250 mg/kg | 6.2 min |  | 
23 | CCCCOc1cccc(C2(C(=O)N[C@@H]3C(=O)N4[C@@H]3SC(C)(C)[C@@H]4C(=O)O)CCC2)c1 [Compound XI (Table 3)] | 1000 mg/kg |  | 46.6 min | 
24 | COc1ccc(C2(C(=O)NC3C(=O)N4C3SC(C)(C)C4C(=O)O)CCCC2)cc1 (stereo not shown) [Compound XII (Table 1)] | 2000 mg/kg |  |  | half-life ([1]; Table 1, cyclopentyl series): 163 min; MIC (E.typhi): 7.8 µg/mL (≈ 18.6 µM); MIC (Staph. aureus 209p): 0.19 µg/mL; MIC (B.Subtitis ATCC6633): 0.24 µg/mL; MIC (Vibrion Metschnicoff): 0.48 µg/mL; MIC (Staph. albus): 0.19 µg/mL; MIC (E.coli O-55): 125 µg/mL (≈ 299 µM); MIC (Ps.aeruginosa): > 500 µg/mL; MIC (Myco smegmatis): > 500 µg/mL; MIC (Sh.dysenteriae Flexneri): 31.2 µg/mL (≈ 74.5 µM); MIC (Strept. pyrogenes): 0.048 µg/mL; MIC (Prot.vulgaris): 62.5 µg/mL; Quantity of inactivated units of compounds under the action of 1 unit of staphylococc penicillinase [2]: 40.3 units
25 | COc1ccc(C2(C(=O)N[C@@H]3C(=O)N4[C@@H]3SC(C)(C)[C@@H]4C(=O)O)CC2)cc1 [Compound XII (Table 2)] | 2000 mg/kg | 7.3 min |  | 
26 | COc1ccc(C2(C(=O)N[C@@H]3C(=O)N4[C@@H]3SC(C)(C)[C@@H]4C(=O)O)CCC2)cc1 [Compound XII (Table 3)] | 1500 mg/kg |  | 10.7 min | 
27 | CCOc1ccc(C2(C(=O)NC3C(=O)N4C3SC(C)(C)C4C(=O)O)CCCC2)cc1 (stereo not shown) [Compound XIII (Table 1), 1-(n-Ethoxyphenyl)Cyclopentyl-1-Penicillin] | 1500 mg/kg |  |  | half-life ([1]; Table 1, cyclopentyl series): 99.2 min; MIC (E.typhi): 7.8 µg/mL (≈ 18 µM); MIC (Staph. aureus 209p): 0.19 µg/mL; MIC (B.Subtitis ATCC6633): 0.24 µg/mL; MIC (Vibrion Metschnicoff): 0.19 µg/mL; MIC (Staph. albus): 0.09 µg/mL; MIC (E.coli O-55): 62.5 µg/mL (≈ 144 µM); MIC (Ps.aeruginosa): > 500 µg/mL; MIC (Myco smegmatis): > 500 µg/mL; MIC (Sh.dysenteriae Flexneri): 31.2 µg/mL (≈ 72.1 µM); MIC (Strept. pyrogenes): 0.048 µg/mL; MIC (Prot.vulgaris): 62.5 µg/mL; Quantity of inactivated units of compounds under the action of 1 unit of staphylococc penicillinase [2]: 24.9 units
28 | CCOc1ccc(C2(C(=O)N[C@@H]3C(=O)N4[C@@H]3SC(C)(C)[C@@H]4C(=O)O)CC2)cc1 [Compound XIII (Table 2)] | 2750 mg/kg | 6.7 min |  | 
29 | CCOc1ccc(C2(C(=O)N[C@@H]3C(=O)N4[C@@H]3SC(C)(C)[C@@H]4C(=O)O)CCC2)cc1 [Compound XIII (Table 3)] | 1000 mg/kg |  | 190 min | 
30 | CCCOc1ccc(C2(C(=O)NC3C(=O)N4C3SC(C)(C)C4C(=O)O)CCCC2)cc1 (stereo not shown) [Compound XIV (Table 1)] | 1500 mg/kg |  |  | half-life ([1]; Table 1, cyclopentyl series): 88.9 min; MIC (E.typhi): 7.8 µg/mL (≈ 17.5 µM); MIC (Staph. aureus 209p): 0.39 µg/mL; MIC (B.Subtitis ATCC6633): 0.24 µg/mL; MIC (Vibrion Metschnicoff): 0.9 µg/mL; MIC (Staph. albus): 0.09 µg/mL; MIC (E.coli O-55): 125 µg/mL (≈ 280 µM); MIC (Ps.aeruginosa): > 500 µg/mL; MIC (Myco smegmatis): > 500 µg/mL; MIC (Sh.dysenteriae Flexneri): 31.2 µg/mL (≈ 69.9 µM); MIC (Strept. pyrogenes): 0.048 µg/mL; MIC (Prot.vulgaris): 62.5 µg/mL; Quantity of inactivated units of compounds under the action of 1 unit of staphylococc penicillinase [2]: 10.4 units
31 | CCCOc1ccc(C2(C(=O)N[C@@H]3C(=O)N4[C@@H]3SC(C)(C)[C@@H]4C(=O)O)CC2)cc1 [Compound XIV (Table 2)] | 1000 mg/kg | 19.4 min |  | 
32 | CCCOc1ccc(C2(C(=O)N[C@@H]3C(=O)N4[C@@H]3SC(C)(C)[C@@H]4C(=O)O)CCC2)cc1 [Compound XIV (Table 3)] | 250 mg/kg |  | 27.3 min | 
33 | CC(C)Oc1ccc(C2(C(=O)NC3C(=O)N4C3SC(C)(C)C4C(=O)O)CCCC2)cc1 (stereo not shown) [Compound XV (Table 1)] | 1500 mg/kg |  |  | half-life ([1]; Table 1, cyclopentyl series): 160 min; MIC (E.typhi): 7.8 µg/mL (≈ 17.5 µM); MIC (Staph. aureus 209p): 0.19 µg/mL; MIC (B.Subtitis ATCC6633): 0.24 µg/mL; MIC (Vibrion Metschnicoff): 0.48 µg/mL; MIC (Staph. albus): 0.19 µg/mL; MIC (E.coli O-55): 25 µg/mL (≈ 56 µM); MIC (Ps.aeruginosa): > 500 µg/mL; MIC (Myco smegmatis): > 500 µg/mL; MIC (Sh.dysenteriae Flexneri): 31.2 µg/mL (≈ 69.9 µM); MIC (Strept. pyrogenes): 0.09 µg/mL; MIC (Prot.vulgaris): 62.5 µg/mL; Quantity of inactivated units of compounds under the action of 1 unit of staphylococc penicillinase [2]: 9.4 units
34 | CC(C)Oc1ccc(C2(C(=O)N[C@@H]3C(=O)N4[C@@H]3SC(C)(C)[C@@H]4C(=O)O)CCC2)cc1 [Compound XV (Table 3)] | 500 mg/kg |  | 60.1 min | 
35 | CCCCOc1ccc(C2(C(=O)N[C@@H]3C(=O)N4[C@@H]3SC(C)(C)[C@@H]4C(=O)O)CC2)cc1 [Compound XVI (Table 2)] | 250 mg/kg | 6.1 min |  | 
36 | CCCCOc1ccc(C2(C(=O)N[C@@H]3C(=O)N4[C@@H]3SC(C)(C)[C@@H]4C(=O)O)CCC2)cc1 [Compound XVI (Table 3)] | 500 mg/kg |  | 25.6 min | 
